# From US7754896B2, “Indol-alanine derivatives as selective S1P4-agonists” (Novartis AG, priority 2004, dated 2010)
# Target: T1, S1P5 (Homo sapiens, UniProt Q9H228)
# T1 construct: expressed in transfected cells
# Experiment: Calcium mobilization assay, CHO cells expressing S1P5
# Assay type: cell-based
# From the text: The human S1P5 (GI: 30171332 or GenBank™ accession number AY262689, TREMBL: Q9H228) is cloned by a PCR based method. Lung and spleen cDNA (marathon cDNA) is obtained from BD Biosciences Chlontech (BD Biosciences Chlontech, Palo Alto, Calif. 94303, USA); genomic DNA is isolated from HeLa cells using standard procedures. Following oligonucleotides are used for the PCR reaction: forward primer CACCATGGAGTCGGGGCTGCTGCG (−4 to 20, GenBank™ accession number AY262689) and reverse primer 5′-TCAGTCTGCAGCCGGTTCTGATACCAGAGTC (1197 to 1131, AY262689), the initiation of the translation (ATG) and the stop codon are underlined. […] The amplified product of around 1100 bp is analyzed by standard agarose gel-electrophoresis. […]
# CHO cells are plated in black Costar plate (96 or 384 well, 50,000 cells or 12,500 cells, respectively) in a MEM with FCS and cultured for 20-24 h at 37° C. in a CO2 incubator. […] After measuring the baseline for 40 sec, the agonist in HBSS is added and the fluorescence is measured at intervals of 2 sec for 3 to 5 min. […]
# T1 sequence (Q9H228 whole entry): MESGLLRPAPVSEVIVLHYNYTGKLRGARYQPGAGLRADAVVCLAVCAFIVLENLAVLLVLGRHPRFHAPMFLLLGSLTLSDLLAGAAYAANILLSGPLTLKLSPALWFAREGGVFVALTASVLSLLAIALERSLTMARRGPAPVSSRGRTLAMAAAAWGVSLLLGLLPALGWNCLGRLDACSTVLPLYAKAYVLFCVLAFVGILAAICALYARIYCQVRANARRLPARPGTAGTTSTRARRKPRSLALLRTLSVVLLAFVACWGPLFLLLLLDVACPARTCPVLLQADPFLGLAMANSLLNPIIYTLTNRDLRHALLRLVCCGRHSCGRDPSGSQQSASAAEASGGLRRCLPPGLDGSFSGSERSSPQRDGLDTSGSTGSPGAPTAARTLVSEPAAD
smiles,measurement,value
NC(CNC(=O)c1cc2c(-c3ccccc3Cc3ccccc3)cccc2[nH]1)C(=O)O (stereo not shown) [Example 2],EC50,2400 nM
